Reference: publication PMC11206519, “Multi-Endpoint Toxicological Assessment of Chrysin Loaded Oil-in-Water Emulsion System in Different Biological Models” (Nanomaterials, 2024)

Assays:
[1] = tested on: D. melanogaster trans-heterozygous mwh+/+flr3 larvae of the ST cross; test: SMART wing spot test, anti-mutagenicity, ST cross
Method: The somatic mutation and recombination test, or the wing spot test, using D. melanogaster was employed as an in vivo system to assess the mutagenicity and anti-mutagenicity of chrysin-ES. Two different crosses were conducted: (i) a standard cross (ST) and (ii) a high bioactivation cross (HB). The standard cross larvae were obtained from virgin female of flr3/TM3, Ser crossed with males of mwh/mwh, while the HB cross larvae expressing cytochrome P450 enzymes involved in xenobiotic biotransformation were obtained from virgin females of ORR/ORR; flr^3/In (3LR) TM3, ri p^psep l (3)89Aa bx^34e e Bd^s crossed with males of mwh/mwh. The flies were cultured at a constant temperature of 25 ± 1 °C and 60–70% RH at photoperiod 12:12 (light/dark). To evaluate the mutagenicity of chrysin and chrysin-ES, a hundred larva F1 progenies derived from the above crossing were fed with instant Drosophila medium (Formula 4-24®), Carolina, Burlington, NC, USA) containing chrysin or chrysin-ES (20–120 µg/mL). DI was used as a negative control, while 20 mM urethane (URE) was used as a positive control. The larvae were reared on each medium until pupation at 25 °C. After that, forty wings of surviving flies in each group were collected for mutant analysis. The mutant spots on the wings, including small single spots, large single spots, and twin spots, were counted. The statistical significance was calculated as previously described by Frei and Würgler.
Furthermore, the anti-mutagenicity of the samples was performed by a similar procedure as mentioned above.

[2] = tested on: LX-2; test: MTT cytotoxicity assay; assay type: cell-based; conditions: Homo sapiens, LX-2, 48 h
Method: (§1) RAW 264.7 (murine macrophage-like cell), 3T3-L1 adipocyte (murine adipocyte), HEK293 (human embryonic kidney cell), and LX-2 (human hepatic stellate cell) were obtained from American Type Culture Collection (ATCC, Manassas, VA, USA). RAW 264.7 macrophages were cultured as a suspension culture in an ultra-low attachment culture dish, whereas the others were cultured as adherent cells in a cell culture flask. The cells were grown in Dulbecco’s Modified Eagle Medium (DMEM) with L-glutamine, supplemented with 10% fetal bovine serum (FBS) (RAW 264.7, HEK293, and LX-2) or 10% fetal calf serum (FCS) (3T3-L1) and 1% penicillin under 5% CO2, at 37 °C. […] Blank-ES was used as a vehicle control. The amount of blank-ES was equal to chrysin-ES amount that was used for the treatment. The cytotoxicity of chrysin, chrysin-ES, and blank-ES in each cell was determined using an MTT assay. […] Then, the solution was gently removed, and the formazan crystal was dissolved with dimethyl sulfoxide (DMSO). The soluble formazan was measured using a microplate reader (Bio-TEK Synergy Hybrid Reader H4) at 540 nm. The cell viability is directly related to the absorbance of formazan. The percentage of cell viability was calculated using the following equation. Cell viability (%) = (Absorbance (sample))/(Absorbance (control)) × 100

[3] = tested on: HEK-293; test: MTT cytotoxicity assay; assay type: cell-based; conditions: Homo sapiens, HEK293, 48 h
Method: as §1

[4] = tested on: 3T3-L1; test: MTT cytotoxicity assay; assay type: cell-based; conditions: Mus musculus, 48 h
Method: as §1

[5] = NMU (sodium nitrite 36 mM: methylurea 10 mM) + 20 μg/mL
[6] = decreases cell viability by 20%
[7] = decreases cell viability by 50%

## O=c1cc(-c2ccccc2)oc2cc(O)cc(O)c12 [Chrysin, 5,7-dihydroxyflavone]
[1]; 40–80 µg/mL
  inhibition of MMC mutagenicity: approximately 30%
[1]; EMS 5 mM + 20 μg/mL
  Inhibition (%): 19%
  Inhibitory Classification: Negligible
  Mutant spots per individual (number of spots), Large Single: 1.28 (51)
  Mutant spots per individual (number of spots), Small Single: 4.88 (195)
  Mutant spots per individual (number of spots), Total: 6.35 (254)
  Mutant spots per individual (number of spots), Twin: 0.20 (8)
[1]; EMS 5 mM + 40 μg/mL
  Inhibition (%): 46%
  Inhibitory Classification: Moderate
  Mutant spots per individual (number of spots), Large Single: 0.93 (37)
  Mutant spots per individual (number of spots), Total: 4.20 (168)
  Mutant spots per individual (number of spots), Twin: 0.35 (14)
[1]; EMS 5 mM + 80 μg/mL
  Inhibition (%): 49%
  Inhibitory Classification: Moderate
  Mutant spots per individual (number of spots), Large Single: 0.35 (14)
  Mutant spots per individual (number of spots), Small Single: 3.50 (140)
  Mutant spots per individual (number of spots), Total: 3.95 (158)
  Mutant spots per individual (number of spots), Twin: 0.10 (4)
[1]; EMS 5 mM + 120 μg/mL
  Inhibition (%): 42%
  Inhibitory Classification: Moderate
  Mutant spots per individual (number of spots), Large Single: 0.88 (35)
  Mutant spots per individual (number of spots), Small Single: 3.40 (136)
  Mutant spots per individual (number of spots), Total: 4.55 (182)
  Mutant spots per individual (number of spots), Twin: 0.28 (11)
[1]; MMC 0.05 mM + 20 μg/mL
  Inhibition (%): −1%
  Mutant spots per individual (number of spots), Large Single: 1.45 (58)
  Mutant spots per individual (number of spots), Small Single: 8.05 (322)
  Mutant spots per individual (number of spots), Total: 9.85 (394)
  Mutant spots per individual (number of spots), Twin: 0.35 (14)
[1]; MMC 0.05 mM + 40 μg/mL
  Inhibition (%): 30%
  Inhibitory Classification: Weak
  Mutant spots per individual (number of spots), Large Single: 1.35 (54)
  Mutant spots per individual (number of spots), Small Single: 4.98 (199)
  Mutant spots per individual (number of spots), Total: 6.85 (274)
  Mutant spots per individual (number of spots), Twin: 0.53 (21)
[1]; MMC 0.05 mM + 80 μg/mL
  Inhibition (%): 30%
  Inhibitory Classification: Weak
  Mutant spots per individual (number of spots), Large Single: 1.63 (65)
  Mutant spots per individual (number of spots), Small Single: 4.48 (179)
  Mutant spots per individual (number of spots), Total: 6.83 (273)
  Mutant spots per individual (number of spots), Twin: 0.73 (29)
[1]; MMC 0.05 mM + 120 μg/mL
  Inhibition (%): 77%
  Inhibitory Classification: Strong
  Mutant spots per individual (number of spots), Large Single: 0.58 (23)
  Mutant spots per individual (number of spots), Small Single: 1.50 (60)
  Mutant spots per individual (number of spots), Total: 2.25 (90)
  Mutant spots per individual (number of spots), Twin: 0.18 (7)
[1]; MMC 0.05 mM + 120 μg/mL, listed as chrysin
  Inhibition (%): approximately 77%
[1]; [5]
  Inhibition (%): 89%
  Inhibitory Classification: Strong
  Mutant spots per individual (number of spots), Large Single: 0.03 (1)
  Mutant spots per individual (number of spots), Small Single: 0.15 (6)
  Mutant spots per individual (number of spots), Total: 0.23 (9)
  Mutant spots per individual (number of spots), Twin: 0.05 (2)
[1]; NMU + 40 μg/mL
  Inhibition (%): 91%
  Inhibitory Classification: Strong
  Mutant spots per individual (number of spots), Large Single: 0 (0)
  Mutant spots per individual (number of spots), Small Single: 0.18 (7)
  Mutant spots per individual (number of spots), Total: 0.18 (7)
  Mutant spots per individual (number of spots), Twin: 0 (0)
[1]; NMU + 80 μg/mL
  Inhibition (%): 91%
  Inhibitory Classification: Strong
  Mutant spots per individual (number of spots), Large Single: 0 (0)
  Mutant spots per individual (number of spots), Small Single: 0.18 (7)
  Mutant spots per individual (number of spots), Total: 0.18 (7)
  Mutant spots per individual (number of spots), Twin: 0 (0)
[1]; NMU + 120 μg/mL
  Inhibition (%): 90%
  Inhibitory Classification: Strong
  Mutant spots per individual (number of spots), Large Single: 0.08 (3)
  Mutant spots per individual (number of spots), Small Single: 0.13 (5)
  Mutant spots per individual (number of spots), Total: 0.20 (8)
  Mutant spots per individual (number of spots), Twin: 0 (0)
[1]; URE 20 mM + 20 μg/mL
  Inhibition (%): 94%
  Inhibitory Classification: Strong
  Mutant spots per individual (number of spots), Large Single: 0 (0)
  Mutant spots per individual (number of spots), Small Single: 0.23 (9)
  Mutant spots per individual (number of spots), Total: 0.23 (9)
  Mutant spots per individual (number of spots), Twin: 0 (0)
[1]; URE 20 mM + 40 μg/mL
  Inhibition (%): 91%
  Inhibitory Classification: Strong
  Mutant spots per individual (number of spots), Large Single: 0.03 (1)
  Mutant spots per individual (number of spots), Small Single: 0.33 (13)
  Mutant spots per individual (number of spots), Total: 0.35 (14)
  Mutant spots per individual (number of spots), Twin: 0 (0)
[1]; URE 20 mM + 80 μg/mL
  Inhibition (%): 91%
  Inhibitory Classification: Strong
  Mutant spots per individual (number of spots), Large Single: 0 (0)
  Mutant spots per individual (number of spots), Small Single: 0.35 (14)
  Mutant spots per individual (number of spots), Total: 0.35 (14)
  Mutant spots per individual (number of spots), Twin: 0 (0)
[1]; URE 20 mM + 120 μg/mL
  Inhibition (%): 86%
  Inhibitory Classification: Strong
  Mutant spots per individual (number of spots), Large Single: 0.03 (1)
  Mutant spots per individual (number of spots), Small Single: 0.55 (22)
  Mutant spots per individual (number of spots), Total: 0.56 (23)
  Mutant spots per individual (number of spots), Twin: 0 (0)
[2]; [6]
  IC20: ~52 µM
[2]; [7]
  IC50: > 90 µM
[3]; [6]
  IC20: ~53 µM
[3]; [7]
  IC50: > 90 µM
[4]; [6]
  IC20: > 90 µM
[4]; [7]
  IC50: > 90 µM
